Measurements: ChEMBL document CHEMBL1147984, “Discovery, synthesis, and in vivo activity of a new class of pyrazoloquinazolines as selective inhibitors of aurora B kinase” (J Med Chem, 2007)
Converted amounts (≈) assume the structure as drawn. “And” between values parts separate entries of the source, which are not always exact repeats. Identical values can stand only once.

Assays:
[1] = protein binding; assay type: ADME; settings: read-out: PB (converted)
[2] = aqueous solubility; assay type: physicochemical; settings: read-out: S
Aurora kinase A [3] = biological target: T1, Aurora kinase A (Homo sapiens, UniProt O14965)
T1 sequence (O14965 whole entry): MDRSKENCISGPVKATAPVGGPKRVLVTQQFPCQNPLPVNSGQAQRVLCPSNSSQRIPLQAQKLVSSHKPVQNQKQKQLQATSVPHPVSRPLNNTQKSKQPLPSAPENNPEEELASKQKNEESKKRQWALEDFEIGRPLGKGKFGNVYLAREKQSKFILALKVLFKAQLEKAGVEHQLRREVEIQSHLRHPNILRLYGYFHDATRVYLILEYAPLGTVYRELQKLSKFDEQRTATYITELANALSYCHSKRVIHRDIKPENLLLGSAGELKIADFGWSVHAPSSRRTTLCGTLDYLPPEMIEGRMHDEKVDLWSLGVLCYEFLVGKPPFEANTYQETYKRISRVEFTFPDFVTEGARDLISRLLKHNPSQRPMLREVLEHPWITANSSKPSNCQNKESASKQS
Description: (§1) Inhibition of human recombinant Aurora A

Aurora kinase B = Aurora kinase B (Homo sapiens, UniProt Q96GD4)
Chain of Aurora kinase B (Q96GD4 whole entry): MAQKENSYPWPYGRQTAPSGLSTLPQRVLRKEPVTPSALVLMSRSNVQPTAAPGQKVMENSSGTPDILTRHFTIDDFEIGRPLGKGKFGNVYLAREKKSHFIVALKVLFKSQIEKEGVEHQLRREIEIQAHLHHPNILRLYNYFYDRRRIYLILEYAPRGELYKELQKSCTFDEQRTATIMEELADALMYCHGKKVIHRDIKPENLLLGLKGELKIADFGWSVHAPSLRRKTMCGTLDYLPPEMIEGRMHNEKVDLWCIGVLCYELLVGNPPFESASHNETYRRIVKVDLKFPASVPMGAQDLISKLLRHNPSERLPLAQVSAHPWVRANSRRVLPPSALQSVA
Description: Inhibition of human recombinant Aurora B

Aurora kinase A [4] = biological target: T1, Aurora kinase A; remark: listed apart in the source
Description: as §1

physchem = settings: octanol/water, pH 7.4
[5] = P450 isoforms 3A4; assay type: ADME
[6] = rat
in vivo = settings: rat
[7] = solubility (tris buffer pH9); assay type: physicochemical; settings: pH 9, read-out: S

Description for SW-620: inhibition of histone-H3 phosphorylation following 24 hr incubation in SW620 tumor cells

SMILES	Ki (SW-620) [nM]	Ki (Aurora kinase A [3])	Ki (Aurora kinase B) [nM]	other results
COc1cc2c(Nc3ncc(CC(=O)Nc4cccc(F)c4)s3)ncnc2cc1OCCCN1CCC(CO)CC1	5	–	–	fraction unbound [1]: 0.02
COc1cc2c(Nc3ncc(CC(=O)Nc4cccc(F)c4)s3)ncnc2cc1OCCCN1CCC(COP(=O)(O)O)CC1	–	–	–	solubility [2]: > 10 mg/mL
COc1cc2c(Nc3cc(CC(=O)Nc4cccc(F)c4)[nH]n3)ncnc2cc1OCCCN(C)CCO	120	65 nM	< 1	–
CCCN(CCO)CCCOc1ccc2c(Nc3cc(CC(=O)Nc4cccc(F)c4F)[nH]n3)ncnc2c1	2	350 nM	< 1	–
CCN(CCO)CCCOc1cc2ncnc(Nc3cc(CC(=O)Nc4cccc(F)c4F)[nH]n3)c2cc1OC	45	360 nM	< 1	logD (physchem): 1.9; IC50 [5]: > 10000 nM; fraction unbound [1]: 0.17
O=C(Cc1cc(Nc2ncnc3cc(OCCCN4CCC[C@@H]4CO)ccc23)n[nH]1)Nc1cccc(F)c1F	5	950 nM	< 1	logD (physchem): 2.1; AB [6]: 89%; clearance (in vivo): 15 mL/min/kg
CCCN(CCCOc1cc2ncnc(Nc3cc(CC(=O)Nc4cccc(F)c4F)[nH]n3)c2cc1OC)CCOP(=O)(O)O	–	–	–	solubility [7]: 25 mg/mL (≈ 38.5 mM)
O=C(Cc1cc(Nc2ncnc3cc(OCCCN4CCC[C@@H]4CO)ccc23)n[nH]1)Nc1cccc(F)c1	24	1400 nM	< 1	–
CCN(CCO)CCCOc1cc2ncnc(Nc3cc(CC(=O)Nc4cccc(F)c4)[nH]n3)c2cc1OC	270	190 nM	1	logD (physchem): 2.1; fraction unbound [1]: 0.05
CCN(CCO)CCCOc1ccc2c(Nc3cc(CC(=O)Nc4cccc(F)c4F)[nH]n3)ncnc2c1	7	160 nM	< 1	–
CCCN(CCO)CCCOc1ccc2c(Nc3cc(CC(=O)Nc4cccc(F)c4)[nH]n3)ncnc2c1	7	980 nM	< 1	–
COc1cc2c(Nc3cc(CC(=O)Nc4cccc(F)c4F)[nH]n3)ncnc2cc1OCCCN(CCO)CC(C)C	< 1	18 nM	< 1	logD (physchem): 3.6; IC50 [5]: 400 nM
CCCN(CCO)CCCOc1cc2ncnc(Nc3cc(CC(=O)Nc4cccc(F)c4)[nH]n3)c2cc1OC	290	220 nM	2	–
COc1cccc(NC(=O)Cc2cc(Nc3ncnc4cc(OCCCN5CCC(CO)CC5)c(OC)cc34)[nH]n2)c1	5500	–	–	–
COc1cc2c(Nc3cc(CC(=O)Nc4cccc(F)c4F)[nH]n3)ncnc2cc1OCCCN1CCC[C@@H]1COP(=O)(O)O	–	–	–	solubility [7]: 25 mg/mL (≈ 38.6 mM)
COc1cc2c(Nc3cc(CC(=O)Nc4cccc(F)c4)[nH]n3)ncnc2cc1OCCCNCCO	630	690 nM	1	–
COc1cc2c(Nc3cc(CC(=O)Nc4cccc(F)c4F)[nH]n3)ncnc2cc1OCCCN1CCN(CCO)CC1	71	55 nM	< 1	–
O=C(Cc1cc(Nc2ncnc3cc(OCCCN4CCC[C@@H]4COP(=O)(O)O)ccc23)n[nH]1)Nc1cccc(F)c1F	–	–	–	solubility [7]: 25 mg/mL (≈ 40.5 mM)
COc1cc2c(Nc3cc(CC(=O)Nc4cccc(F)c4)[nH]n3)ncnc2cc1OCCCN1CCC[C@@H]1CO	330	110 nM	1	fraction unbound [1]: 0.05
CCN(CCCOc1ccc2c(Nc3cc(CC(=O)Nc4cccc(F)c4)n[nH]3)ncnc2c1)CCOP(=O)(O)O [BARASERTIB]	–	–	–	solubility [7]: 25 mg/mL (≈ 42.5 mM)

Continued, in another order:

Ki (SW-620) [nM]	Ki (Aurora kinase A [3])	Ki (Aurora kinase B) [nM]	SMILES	other results
> 10000	4000 nM	–	COc1cc2c(Nc3cc(CC(=O)Nc4cccc(O)c4)[nH]n3)ncnc2cc1OCCCN1CCC(CO)CC1	Ki (Aurora kinase A [4]): 140 nM
78	220 nM	< 1	COc1cc2c(Nc3cc(CC(=O)Nc4cccc(F)c4F)[nH]n3)ncnc2cc1OCCCN1CCC(O)CC1	–
45	39 nM	< 1	COc1cc2c(Nc3cc(CC(=O)Nc4cccc(F)c4F)[nH]n3)ncnc2cc1OCCCN1CCC[C@H]1CO	–
1200	450 nM	–	COc1cc2c(Nc3cc(CC(=O)Nc4cccc(Cl)c4)[nH]n3)ncnc2cc1OCCCN1CCC(CO)CC1	Ki (Aurora kinase A [4]): 8 nM
2600	2000 nM	–	COc1cc2c(Nc3cc(CC(=O)Nc4ccc(F)cc4)[nH]n3)ncnc2cc1OCCCN1CCC(CO)CC1	Ki (Aurora kinase A [4]): 30 nM
> 10000	2600 nM	–	COc1cc2c(Nc3cc(CC(=O)Nc4cccc(C#N)c4)[nH]n3)ncnc2cc1OCCCN1CCC(CO)CC1	Ki (Aurora kinase A [4]): 83 nM
370	–	–	COc1cc2c(Nc3cc(CC(=O)Nc4cc(F)cc(F)c4)[nH]n3)ncnc2cc1OCCCN1CCC(CO)CC1	–
540	–	–	COc1cc2c(Nc3cc(CC(=O)Nc4cccc(F)c4F)[nH]n3)ncnc2cc1OCCCN1CCC(CO)CC1	–
> 10000	890 nM	–	COc1cc2c(Nc3cc(CC(=O)Nc4cccc([N+](=O)[O-])c4)[nH]n3)ncnc2cc1OCCCN1CCC(CO)CC1	Ki (Aurora kinase A [4]): 39 nM
130	280 nM	< 1	COc1cc2c(Nc3cc(CC(=O)Nc4cccc(F)c4F)[nH]n3)ncnc2cc1OCCCN1CCC(CCO)CC1	–
42	94 nM	1	COc1cc2c(Nc3cc(CC(=O)Nc4cccc(F)c4F)[nH]n3)ncnc2cc1OCCCN1CCC[C@@H]1CO	logD (physchem): 2; fraction unbound [1]: 0.15; AB [6]: 85%; clearance (in vivo): 63 mL/min/kg
–	1600 nM and 1200 nM	–	COc1cc2c(Nc3cc(CC(=O)Nc4ccccc4)[nH]n3)ncnc2cc1OCCCN1CCC(CO)CC1	Ki (Aurora kinase A [4]): 18 nM
1800	–	510	COc1cc2c(Nc3cc(CC(=O)Nc4cccc(C(F)(F)F)c4)[nH]n3)ncnc2cc1OCCCN1CCC(CO)CC1	Ki (Aurora kinase A [4]): 13 nM
–	1400 nM and 470 nM	–	COc1cc2c(Nc3cc(CC(=O)Nc4ccccc4F)[nH]n3)ncnc2cc1OCCCN1CCC(CO)CC1	Ki (Aurora kinase A [4]): 14 nM
